# “Also recorded” adds a separate entry of the source. Read-outs that look alike come from different tables or passages of the source.
# Columns and labels:
# angiotensin = assay: In-vitro angiotensin inhibitory activity; type: biochemical; conditions: for Percent Inhibition (angiotensin inhibitory activity): in vitro; for angiotensin inhibitory activity (in words): general pharmacological screening
# LTD4 = LTD4 antagonistic activity (general pharmacological screening)
# [1] = In-vivo (P.O.) anti-ulcer stress activity; conditions: for anti-ulcer stress Activity: P.O.; for anti-ulcer stressic activity (in words): general pharmacological screening
# calcium channel = biological target: T1, calcium channel (Cavia porcellus, UniProt O35505); assay: Calcium channel antagonist activity: inhibition of muscarinic receptor-mediated Ca2+-dependent contraction (carbachol) of guinea pig ileal longitudinal smooth muscle; type: cell-based; conditions: for relative potency as compared with Nifedipine: Nifedipine = reference
# T1 construct: Longitudinal smooth muscle segments of 2 cm length were mounted under a resting tension; from tissue; host or cells: ileal longitudinal smooth muscle segments of male albino guinea pigs
# Method: Male albino guinea pigs (body weight 300-450 g) were sacrificed by decapitation. The intestine was removed above the ileo-caecal junction. Longitudinal smooth muscle segments of 2 cm length were mounted under a resting tension of 300-400 mg. […] The muscles were equilibrated for 1 h with a solution change every 15 min. Two successive control contractions were elicited at 15 min. intervals with 5×10^-7 M carbachol. The isometric contractions were recorded with a force displacement transducer (FT 03C) on a GRASS* physiograph. The means of the […] contractile responses was taken as the 100% value for the tonic (slow) component of the response. The muscle was washed with Hepes saline solution and was allowed to re-equilibrate. The calcium antagonist (test compound) was added ten min before the dose-response for carbachol was determined. The drug-induced inhibition of contraction was expressed as percent of control. The ID50 values were graphically determined from the concentration-response curves, in triplicate.
# [2] = In-vivo (P.O.) anti-inflammatory activity; conditions: for anti-inflammatory Activity: P.O.
# heart [3] = assay: Effect on heart rate
# SHR Rat = assay: Blood pressure and heart rate in SHR Rat; type: in vivo; conditions: 0.2 mg/Kg
# heart muscle = assay: Ionotropic effect on heart muscle; conditions: for heart contractile force: at concentrations which exhibit Ca-blocking effect in smooth muscles; for positive ionotropic effect on the heart: in the same concentration as on smooth muscle; for activation at 0.00325 µM: same concentration as smooth muscle relaxant (Compound 11: 3.25×10^-9 M), Compound 19 in the same condition, read-out: positive ionotropic effect on heart muscle
# heart [4] = conditions: J. Cardiovascular Pharmacology, 1987, 10 (Suppl. 1) S60-S65; cited from earlier work
# [5] = guinea pig ileal longitudinal smooth muscle, carbachol, 37° C., triplicate, read-out: calcium channel antagonist act., inhib. act. on contractile response to CD ID50
# T1 sequence (O35505 whole entry): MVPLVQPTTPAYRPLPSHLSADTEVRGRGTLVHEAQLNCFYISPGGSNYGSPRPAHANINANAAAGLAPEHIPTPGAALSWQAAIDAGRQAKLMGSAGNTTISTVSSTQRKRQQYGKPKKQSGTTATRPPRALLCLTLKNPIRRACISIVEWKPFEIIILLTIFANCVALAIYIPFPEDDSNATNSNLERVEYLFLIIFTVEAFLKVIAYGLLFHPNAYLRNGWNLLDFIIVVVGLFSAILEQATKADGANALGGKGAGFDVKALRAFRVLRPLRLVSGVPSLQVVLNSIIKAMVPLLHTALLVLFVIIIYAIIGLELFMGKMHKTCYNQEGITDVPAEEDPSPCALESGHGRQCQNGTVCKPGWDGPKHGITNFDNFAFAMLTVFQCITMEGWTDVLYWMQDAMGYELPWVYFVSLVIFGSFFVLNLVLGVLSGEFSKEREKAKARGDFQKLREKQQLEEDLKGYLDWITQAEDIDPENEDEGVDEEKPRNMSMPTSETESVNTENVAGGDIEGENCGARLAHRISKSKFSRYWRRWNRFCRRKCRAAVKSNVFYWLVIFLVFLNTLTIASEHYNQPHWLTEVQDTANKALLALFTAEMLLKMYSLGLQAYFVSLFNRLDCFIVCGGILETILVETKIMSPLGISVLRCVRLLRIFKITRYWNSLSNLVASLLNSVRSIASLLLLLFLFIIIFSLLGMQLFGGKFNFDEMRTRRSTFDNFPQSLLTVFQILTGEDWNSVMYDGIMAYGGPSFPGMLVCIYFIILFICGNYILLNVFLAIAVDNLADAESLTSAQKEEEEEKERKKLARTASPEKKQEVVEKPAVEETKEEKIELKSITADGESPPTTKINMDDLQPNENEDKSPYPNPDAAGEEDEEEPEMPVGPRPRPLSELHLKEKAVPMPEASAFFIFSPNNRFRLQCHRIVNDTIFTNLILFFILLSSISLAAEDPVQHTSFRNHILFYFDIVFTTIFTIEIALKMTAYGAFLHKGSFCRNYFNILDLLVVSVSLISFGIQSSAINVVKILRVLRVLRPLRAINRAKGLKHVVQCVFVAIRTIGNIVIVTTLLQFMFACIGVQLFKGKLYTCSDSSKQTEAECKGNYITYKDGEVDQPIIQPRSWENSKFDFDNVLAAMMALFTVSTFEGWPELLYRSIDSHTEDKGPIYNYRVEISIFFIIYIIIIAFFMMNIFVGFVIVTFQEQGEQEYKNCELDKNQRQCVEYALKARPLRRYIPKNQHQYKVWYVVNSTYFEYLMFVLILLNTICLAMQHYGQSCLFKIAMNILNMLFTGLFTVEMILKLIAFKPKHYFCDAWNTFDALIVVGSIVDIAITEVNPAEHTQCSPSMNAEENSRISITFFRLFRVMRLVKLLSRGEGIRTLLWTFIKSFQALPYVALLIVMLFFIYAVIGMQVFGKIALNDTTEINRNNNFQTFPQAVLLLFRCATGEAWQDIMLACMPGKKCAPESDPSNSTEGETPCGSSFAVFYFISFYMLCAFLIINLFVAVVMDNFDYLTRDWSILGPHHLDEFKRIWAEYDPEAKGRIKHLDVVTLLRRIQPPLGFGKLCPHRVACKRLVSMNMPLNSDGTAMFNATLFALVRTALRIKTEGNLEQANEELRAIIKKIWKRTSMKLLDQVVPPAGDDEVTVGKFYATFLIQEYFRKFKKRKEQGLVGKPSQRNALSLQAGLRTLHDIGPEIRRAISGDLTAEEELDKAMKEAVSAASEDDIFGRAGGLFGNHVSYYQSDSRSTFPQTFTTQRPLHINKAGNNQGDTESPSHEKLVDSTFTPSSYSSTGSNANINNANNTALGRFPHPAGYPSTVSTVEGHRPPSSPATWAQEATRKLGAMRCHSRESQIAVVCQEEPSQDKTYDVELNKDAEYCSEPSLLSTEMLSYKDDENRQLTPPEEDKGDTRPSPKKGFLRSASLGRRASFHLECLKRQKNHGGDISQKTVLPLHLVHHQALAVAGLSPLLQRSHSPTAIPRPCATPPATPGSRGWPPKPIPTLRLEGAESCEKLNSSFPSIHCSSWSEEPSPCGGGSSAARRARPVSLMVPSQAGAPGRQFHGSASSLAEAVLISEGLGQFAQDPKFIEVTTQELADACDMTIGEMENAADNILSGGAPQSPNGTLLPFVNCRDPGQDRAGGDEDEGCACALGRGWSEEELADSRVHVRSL
structure (smiles),measurement,setting,value
"C[C@H](CS)C(=O)N1CCC[C@H]1C(=O)O [Captopril, reference compound]",Percent Inhibition (angiotensin inhibitory activity),angiotensin; 0.05 μg/ml,69%
"COC(=O)C1=C(C)NC(C)=C(C(=O)OCCCCCCCc2cc(C)no2)C1c1cccc([N+](=O)[O-])c1 (centres unmarked) [Example 1, 3-[7-(3-Methylisoxazol-5-yl)heptyloxycarbonyl]-5-methoxycarbonyl-2,6-dimethyl-4-(3-nitrophenyl)-1,4-dihydropyridine]",angiotensin inhibitory activity (in words),angiotensin,very strong
same,Percent Inhibition (angiotensin inhibitory activity),angiotensin; 0.0025 μg,60%
same,Percent Inhibition (angiotensin inhibitory activity),angiotensin; 0.01 μg/ml,93%
same,LTD4 antagonistic activity (in words),LTD4,very strong
same,anti-ulcer stress Activity,[1]; 50 mg/kg,63%
same,anti-ulcer stressic activity (in words),[1],very strong
same,IC50,calcium channel; [5],3.84 nM
"COC(=O)C1=C(C)NC(C)=C(C(=O)OCCCCCCCc2cc(C)no2)C1c1cccc(C(F)(F)F)c1 (centres unmarked) [Example 3, 3-[7-(3-Methylisoxazol-5-yl)heptyloxycarbonyl]-5-methoxycarbonyl-2,6-dimethyl-4-(3-trifluoromethylphenyl)-1,4-dihydropyridine]",IC50,calcium channel; [5],5.13 nM
"COC(=O)C1=C(C)NC(C)=C(C(=O)OCCCCCCn2nc(C)cc2C)C1c1cccc([N+](=O)[O-])c1 (centres unmarked) [Example 5, 3-[6-(3,5-Dimethylpyrazol-1-yl)hexyloxycarbonyl]-5-methoxycarbonyl-2,6-dimethyl-4-(3-nitrophenyl) -1,4-dihydropyridine]",Percent Inhibition (angiotensin inhibitory activity),angiotensin; 0.001 μg,58%
same,Percent Inhibition (angiotensin inhibitory activity),angiotensin; 0.01 μg/ml,95%
same,anti-inflammatory Activity,[2]; 40 mg/kg,35%
same,anti-inflammatory activity (in words),[2]; general pharmacological screening,very strong
same,IC50,calcium channel; [5],6.24 nM
"COC(=O)C1=C(C)NC(C)=C(C(=O)OCCCCCCCc2nc(C)cs2)C1c1cccc([N+](=O)[O-])c1 (centres unmarked) [Example 11, 3-[7-(4-Methylthiazol-2-yl)heptyloxycarbonyl]-5-methoxycarbonyl-2,6-dimethyl-4-(3-nitrophenyl)-1,4-dihydropyridine]",heart rate change,heart [3],without changing the heart rate; also recorded: no effect on the heart
same,heart rate change in SHR Rat,SHR Rat,without changing the heart rate
same,heart contractile force,heart muscle,increase the heart contractile force; also recorded: increases cardia contractile force
same,positive ionotropic effect on the heart,heart muscle,about 12%
same,activation at 0.00325 µM,heart muscle,~12%
same,relative potency as compared with Nifedipine,calcium channel; smooth muscle,4.3
same,IC50,"calcium channel; smooth muscle, read-out: IC50 as calcium antagonist in smooth muscle",3.25 ± 0.33 nM
"COC(=O)C1=C(C)NC(C)=C(C(=O)OCCCCCCCc2nc(C)cs2)C1c1cccc(C(F)(F)F)c1 (centres unmarked) [Example 13, 3-[7-(4-Methylthiazol-2-yl)heptyloxycarbonyl]-5-methoxycarbonyl-2,6-dimethyl-4-(3-trifluoromethylphenyl)-1,4-dihydropyridine]",anti-inflammatory Activity,[2]; 25 mg/kg,43%
"COC(=O)C1=C(C)NC(C)=C(C(=O)OCCCCCCCc2nc(C)cs2)C1c1cccc(Cl)c1 (centres unmarked) [Example 15, 3-[7-(4-Methylthiazol-2-yl)heptyloxycarbonyl]-5-methoxycarbonyl-2,6-dimethyl-4-(3-chlorophenyl)-1,4-dihydropyridine]",angiotensin inhibitory activity (in words),angiotensin,very strong
same,Percent Inhibition (angiotensin inhibitory activity),angiotensin; 0.1 μg/ml,64%
same,LTD4 antagonistic activity (in words),LTD4,very strong
same,anti-ulcer stress Activity,[1]; 40 mg/kg,63%
same,anti-ulcer stressic activity (in words),[1],very strong
same,IC50,calcium channel; [5],6.25 nM
"COC(=O)C1=C(C)NC(C)=C(C(=O)OCCCCCCCc2nc(C)cs2)C1c1cccc(Cl)c1Cl (centres unmarked) [Example 17, 3-[7-(4-Methylthiazol-2-yl)heptyloxycarbonyl]-5-methoxycarbonyl-2,6-dimethyl-4-(2,3-dichlorophenyl)-1,4-dihydropyridine]",IC50,calcium channel; [5],48.1 nM
"COC(=O)C1=C(C)NC(C)=C(C(=O)OCCCCCCSc2nc(C)cs2)C1c1cccc([N+](=O)[O-])c1 (centres unmarked) [Example 18, 3-[6-(4-Methylthiazol-2-yl)thiohexyloxycarbonyl]-5-methoxycarbonyl-2,6-dimethyl-4-(3-nitrophenyl)-1,4-dihydropyridine]",IC50,calcium channel; [5],5.48 nM
"COC(=O)C1=C(C)NC(C)=C(C(=O)OCCCCCCS(=O)(=O)c2nc(C)cs2)C1c1cccc([N+](=O)[O-])c1 (centres unmarked) [Example 19, 3-[6-(4-Methylthiazol-2-yl)sulfonylhexyloxycarbonyl]-5-methoxycarbonyl-2,6-dimethyl-4-(3-nitrophenyl)-1,4-dihydropyridine]",heart rate change,heart [3],without changing the heart rate
same,heart contractile force,heart muscle,increase the heart contractile force
same,positive ionotropic effect on the heart,heart muscle,about 22%
same,activation at 0.00325 µM,heart muscle,25%
same,IC50,calcium channel; [5],5.81 nM
same,relative potency as compared with Nifedipine,calcium channel; smooth muscle,2.5
"COC(=O)C1=C(C)NC(C)=C(C(=O)OCCCCCC[S+]([O-])c2nc(C)cs2)C1c1cccc([N+](=O)[O-])c1 (centres unmarked) [Example 20, 3-[6-(4-Methylthiazol-2-yl)sulfinylhexyloxycarbonyl]-5-methoxycarbonyl-2,6-dimethyl-4-(3-nitrophenyl)-1,4-dihydropyridine]",IC50,calcium channel; [5],15.4 nM
"CCOC(=O)C1=C(C)NC(C)=C(C(=O)OC)C1c1cccc(Cl)c1Cl (centres unmarked) [Felodipine, 3-ethoxycarbonyl-5-methoxycarbonyl-4-(2,3-dichlorophenyl)-2,6-dimethyl-1,4-dihydropyridine]",effect on heart rate (tachycardia),heart [4],creates tachycardia
"C[C@]12CCC(=O)C=C1CC[C@@H]1[C@@H]2[C@@H](O)C[C@@]2(C)[C@H]1CC[C@]2(O)C(=O)CO [Hydrocortisone, reference compound]",anti-inflammatory Activity,[2]; 25 mg/kg,32%
"CCCCC1C(=O)N(c2ccccc2)N(c2ccccc2)C1=O [Phenylbutazone, reference compound]",anti-inflammatory Activity,[2]; 50 mg/kg,33%
"CN1CCN(CC(=O)N2c3ccccc3C(=O)Nc3cccnc32)CC1 [Pirenzepine, reference compound]",anti-ulcer stress Activity,[1]; 50 mg/kg,75%
